US20110281957A1, “ENHANCED BIOACTIVE FORMULATIONS OF RESVERATROL” (Lipoprotein Technologies, Inc., priority 2008, published 2011)
Read-outs that look alike come from different tables or passages of the source. Blank lines part the entries; values can stand above or below the compound they belong to.

Assays:
[1] = Solubility in pH 7.4 Hank's Balanced Salt Solution, LC/MS/MS; type: physicochemical; conditions: pH 7.4 buffer, shaken 2 hours, stood overnight at room temperature
Experimental: The mixtures were shaken for 2 hours using a benchtop vortexer and left to stand overnight at room temperature. […] After vortexing and standing overnight, the resveratrol gel formulation mixture was centrifuged at 14,000 rpm for 10 minutes. The filtrate or supernatant was sampled twice, consecutively, and diluted 10, 100, and 10.000-fold in a mixture of 50:50 assay buffer:acetonitrile prior to analysis. Both mixtures were assayed by LC/MS/MS using electrospray ionization against the standards prepared in a mixture of 50:50 assay buffer:acetonitrile. Standard concentrations ranged from 1.0 μM down to 3.0 nM.

[2] = Visual clarity of the resveratrol/surfactant mixture on addition to water; type: physicochemical; conditions: polyoxyl 40 castor oil (macrogoglycerol hydroxystearate) as the surfactant
Experimental: Water soluble compositions of trans-resveratrol were formulated containing the non-ionic surfactant macrogolglycerol hydroxystearate (polyoxyl 40 castor oil). By heating and stirring this polyoxyl castor oil with a powdered synthetic 99% trans-resveratrol, a clear viscous solution was formed containing dissolved trans-resveratrol (hereinafter referred to as “resveratrol gel formulation”). The resveratrol gel formulation consisted of macrogolglycerol hydroxystearate 40 (50 ml) and powdered trans-resveratrol (3 grams), representing a concentration of 6% for the resveratrol in the surfactant.
The following formulation was prepared as described below: 500 mg of purified resveratrol 99% derived from polygonum cuspidatum (Japanese knotweed) was dissolved in 25 ml of warm macrogoglycerol hydroxystearate until a clear gel was formed. 250 mg of ascorbic acid was added to the clear gel, which was then slowly added to 100 ml of warm water.

[3] = test system: breast cancer (MCF-7) cells; conditions: MCF-7 cells in vitro; cited from earlier work
[4] = test system: ovarian cancer (A-2780) cells; conditions: A-2780 cells in vitro; cited from earlier work
[5] = cited from earlier work
[6] = humans, up to 4 g; cited from earlier work

- solubility ([1]; Hank's Balanced Salt Solution buffer, pH 7.4, aqueous buffer, thermodynamic from solid, average of 2 replicates, read-out: Solubility AVG): 0.5 µM
- solubility ([1]; Hank's Balanced Salt Solution buffer, pH 7.4, aqueous buffer, thermodynamic from solid, replicate 1, read-out: Solubility Rep 1): 0.4 µM
- solubility ([1]; Hank's Balanced Salt Solution buffer, pH 7.4, aqueous buffer, thermodynamic from solid, replicate 2, read-out: Solubility Rep 2): 0.61 µM
- solubility ([1]; average of 2 replicates, read-out: Solubility AVG): 0.505 µM
Compound: Oc1ccc(/C=C/c2cc(O)cc(O)c2)cc1 [Powdered Resveratrol, trans-3,5,4′-trihydroxystilbene]

- Maximum concentration in surfactant for a crystal-clear solution in water [2]: ≤ 20%
Compound: Oc1ccc(C=Cc2cc(O)cc(O)c2)cc1 [Resveratrol, 3,5,4′-trihydroxystilbene]
- Inhibition of proliferation [3]: inhibited the proliferation
- Inhibition of proliferation [4]: inhibited the proliferation
- Solubility in water [5]: insoluble in water

Compound: O=c1c(O)c(-c2ccc(O)c(O)c2)oc2cc(O)cc(O)c12 [quercetin]
- Detection in plasma after oral administration [6]: No quercetin could be found in plasma
